The structures appear in SMILES notation. Activity calls are given as the source filed them.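 How the source made its calls: active means caspase luminescence falls with dose and the half-maximal concentration AC50 from the fitted curve is at or below a set limit; inconclusive means flat fit at 30 to 70% signal loss, or invalid fit; inactive means AC50 above the limit, or signal rises instead.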 Some results are limits rather than exact numbers.

The assay relates to INS-1E cytokine-induced caspase-3/7, Caspase-Glo luminescence, 48 h. The assay can be described thus: suppression of cytokine-driven beta-cell apoptosis – INS-1E rat cells, luminescence, orthogonal assay for beta-cell apoptosis protection project, dose response (AID 463206).
By AC50 is commonly meant the concentration giving half of the maximal activity seen. In the case of `CC(C)(C)c1cc(NCCCn2ccnc2)n2ncc(-c3ccccc3)c2n1`, the AC50 is > 26 µM (inactive). With `CC(C)c1nc(-c2ccccc2)c(-c2ccccc2)[nH]1` the figure was > 26 µM (inactive).

Regarding `Cc1c(C)c2cccnc2c2ncccc12`, the AC50 is > 26 µM (inactive). As for `COc1ccc(C2CC(c3ccc4ccccc4c3OC(C)=O)=NN2C(C)=O)cc1` (configuration not stated), the figure is > 26 µM (inactive); as for `COc1ccccc1C(=O)Nc1nc(-c2ccc(S(=O)(=O)N3CCOCC3)cc2)cs1`, > 26 µM (inactive). With `COc1cccc(/C=N/Nc2cc(N3CCOCC3)ncn2)c1O` the figure was > 26 µM (inactive). With `Cc1ccc(Nc2c(-c3ccccn3)nc3ccc(C)cn23)cc1` the figure was > 26 µM (inactive); with `O=C(N/N=C/c1cc([N+](=O)[O-])ccc1O)c1cccc(NC(=O)c2cccc(Cl)c2)c1`, > 26 µM (inactive); with `COc1ccc(Cn2c(SCc3ccc(C)cc3)nc3cc(OC)c(OC)cc3c2=N)cc1Cl`, > 26 µM (inactive).

Turning to `Cc1ccc(Nc2c(-c3ccccn3)nc3cccc(C)n23)cc1`, the AC50 is > 26 µM (inactive). Turning to `C/C(=N\NC(=O)c1ccccc1OCc1ccc(F)cc1)c1ccccn1`, the AC50 is > 26 µM (inactive). As for `C/C(=N\NC(=O)c1cc(C2CC2)nc2ccccc12)c1ccc(O)cc1O`, the AC50 is > 26 µM (inactive). With `O=C(c1cc(COc2ccc3ncccc3c2)on1)N1CCCCCC1` the figure was > 26 µM (inactive). With `CCOC(=O)c1ccc(NC(=O)Cn2cnc3cc(C)c(C)cc32)cc1` the figure was > 26 µM (inactive). As for `CCOc1ccc(-n2c(-c3ccccc3)c[n+]3c2CCC3)cc1`, the figure is > 26 µM (inactive); as for `CN1/C(=C\C(=O)C[n+]2cccc(Br)c2)C(C)(C)c2ccccc21`, > 26 µM (inactive).

As to `Cc1nc(NC(=O)C23CC4CC(CC(C4)C2)C3)sc1Cc1ccc2c(c1)OCO2`, the AC50 is > 26 µM (inactive). As for `C=C1CCc2c([nH]c3ccc(OCC(C)C)cc23)C1=O`, the figure is > 26 µM (inactive); as for `CCCCn1c(NS(=O)(=O)c2ccccc2)c(S(=O)(=O)c2ccc(C)cc2)c2nc3ccccc3nc21`, > 12 µM (inactive).

Consider `Cc1ccc(Sc2cc(C)nc(-c3ccccn3)n2)cc1`, for which the AC50 was > 12 µM (inactive). As to `CCCCCn1c(=O)c(C(=O)NC(C)c2ccccc2)c(O)c2ccccc21` (configuration not stated), the AC50 was > 26 µM (inactive).

As for `O=C(Nc1ccc(OC(F)(F)F)cc1)Nc1cccc([N+](=O)[O-])c1`, the AC50 is > 26 µM (inactive). On to `Cc1noc(-c2ccc(C(F)(F)F)cc2)c1NC(=O)Nc1ccc(Cl)cc1`, for which the AC50 is > 26 µM (inactive). As to `C/C(=N\NC(=O)COc1ccccc1-c1ccccc1)c1ccc(O)cc1O`, the AC50 is > 26 µM (inactive).

As for `COc1cccc(/C=N/Nc2ncnc(Cl)c2N)c1O`, the AC50 was > 26 µM (inactive). With `CC1CCN(Cc2c(C(=O)N/N=C/c3ccccc3O)nnn2-c2nonc2N)CC1` the figure was > 26 µM (inactive); with `COCCN(C(=O)COC(=O)C1CCC(C(C)(C)C)CC1)c1c(N)n(Cc2ccccc2)c(=O)[nH]c1=O` (configuration not stated), > 26 µM (inactive). As for `O=C(Nc1ccc(Cl)c(Cl)c1)N1CCSC1c1ccco1` (configuration not stated), the figure is > 26 µM (inactive). With `O=C(Nc1cccc([N+](=O)[O-])c1)c1cc2ccccc2cc1O` the figure was > 26 µM (inactive); with `CCCc1cc(=O)n2[nH]cc(-c3ccc(Cl)cc3)c2n1`, > 26 µM (inactive).

Take `CCOc1cc(/C=C2\COc3ccccc3C2=O)cc(Br)c1OCC(=O)N(C)C`: the AC50 is > 26 µM (inactive).

With `O=C(c1cc(-c2cccc(O)c2)on1)N1CCN(C(c2ccccc2)c2ccccc2)CC1`, the AC50 is > 26 µM (inactive).

As for `CN(C)CCCn1cnc2c(c1=N)C(c1ccccc1)c1ccc3ccccc3c1O2` (configuration not stated), the AC50 was 9.99 µM.

Consider `C[C@@H]1CN([C@H](C)CO)C(=O)c2cc(NC(=O)Nc3ccc(C(F)(F)F)cc3)ccc2O[C@H]1CN(C)S(=O)(=O)c1cccs1`, for which the AC50 was > 26 µM (inactive). With `Cc1ccc(Nc2cc(C)nc(NCc3ccccc3)n2)cc1` the figure was > 12 µM (inactive); with `N#Cc1ccc(-c2ccc(Cl)cc2)nc1SCC(=O)c1cccc(Cl)c1`, > 26 µM (inactive).

For `CC(C)c1cccc(C(C)C)c1OC(=O)[C@H]1OC(C(C)(C)C)=C[C@@H]1c1ccccc1`, the AC50 is > 26 µM (inactive). For `COCCNc1nc2c(c(=O)n(C)c(=O)n2C)n1Cc1cccc(C(F)(F)F)c1`, the AC50 is > 26 µM (inactive). With `Cc1cc(C(=O)C(C)OC(=O)c2ccc(NC(=O)CC#N)cc2)c(C)n1-c1ccc(OC(F)F)cc1` (configuration not stated) the figure was > 26 µM (inactive). As for `COc1ccc(-c2cc3ccccc3oc2=O)cc1NC(=O)c1ccc([N+](=O)[O-])o1`, the figure is > 26 µM (inactive); as for `Cc1ccc(Nc2c(-c3ccccn3)nc3cc(C)ccn23)cc1`, > 26 µM (inactive).

On to `C#CCOCCOCCOCCNc1nc(N2CCN(C(=O)CCCCCCCCCCNC(=O)Cn3cc(C[C@@H](C)O)nn3)CC2)nc(N2CCN(C(=O)CCCCCCCCCCNC(=O)[C@@H]([C@H](C)CC)n3cc(CCCCCN)nn3)CC2)n1`, for which the AC50 was > 26 µM (inactive). As for `Cc1cccc(/C=N\NC(=O)c2ccc(Cl)cc2)c1O`, the figure is > 26 µM (inactive); as for `Cn1nc(CC(=O)Nc2ccc3c(c2)OCCO3)c2ccccc2c1=O`, > 26 µM (inactive). As for `CCOC(=O)c1ccc(NC(=O)NCc2cccnc2)cc1`, the AC50 is > 26 µM (inactive). With `CCC(O)C1CCN(C(=O)c2cc(COc3ccc4ncccc4c3)on2)CC1` (configuration not stated) the figure was > 26 µM (inactive).

In the case of `Cc1ccccc1NC(=S)N/N=C/c1ccc(O)cc1O`, the AC50 is > 26 µM (inactive). As for `Cc1ccc(C(=O)Nc2nc(-c3ccccn3)cs2)s1`, the AC50 was > 26 µM (inactive). On to `Cc1nc(C)c(-c2csc(NCCc3ccccc3)n2)s1`, for which the AC50 was > 26 µM (inactive).

With `O=C(NC(=S)NNC(=O)c1cnccn1)c1ccc(F)cc1`, the AC50 was > 26 µM (inactive). As for `CN(C1=C(NC(=O)c2ccc(Cl)cc2)C(=O)c2ccccc2C1=O)c1ccccc1`, the AC50 is > 26 µM (inactive). As for `O=C(N/N=C(\c1ccccc1)c1ccccn1)c1cccc([N+](=O)[O-])c1`, the figure is > 26 µM (inactive); as for `Cc1ccc2nc(-c3ccc(NC(=O)c4cccnc4)cc3)oc2c1`, > 26 µM (inactive). With `C=C1C(=O)O[C@H]2C[C@@H](C)[C@@H]3C=CC(=O)[C@@]3(C)C[C@H]12` the figure was 2.83 µM. As for `NC1=NC[C@H](Cc2ccccc2)N1CCCCC1CCCCC1`, the figure is > 26 µM (inactive); as for `Oc1c(C(Nc2cccc(C(F)(F)F)c2)c2ccncc2)ccc2cccnc12` (configuration not stated), > 26 µM (inactive). In the case of `Cc1ccc(-c2[nH]ncc2/C=N/n2c(COc3ccccc3C)nc3ccccc3c2=O)cc1`, the AC50 is > 26 µM (inactive). With `COc1cccc(/C=N/NC(=O)c2c(-c3ccccc3)noc2C)c1O` the figure was > 26 µM (inactive); with `COC(=O)c1c(C)oc2ccc(N(C(=O)c3ccncc3)S(=O)(=O)c3ccc(C)cc3C)cc12`, > 26 µM (inactive); with `CN(C)C(=O)c1ccc(NC(=O)c2cccc(S(=O)(=O)N3CCCCCC3)c2)cc1`, > 26 µM (inactive). With `C/C(=N\NC(=O)C(C)Oc1ccc([N+](=O)[O-])cc1)c1ccccn1` (configuration not stated) the figure was > 26 µM (inactive); with `CCOC(=O)[C@@H]1[C@H]2COc3cc(OC)ccc3[C@H]2N2C(=O)N(c3ccc(C(F)(F)F)cc3)C(=O)[C@]12C`, > 26 µM (inactive); with `C/C(Cn1nnc([N+](=O)[O-])n1)=N\NC(=O)c1ccccc1Cl`, > 26 µM (inactive). With `Cc1ccc2oc(-c3ccc(NC(=O)c4cccnc4)cc3)nc2c1` the figure was > 26 µM (inactive). On to `Clc1ccc(SCc2cc(N3CCOCC3)nc(-c3ccccn3)n2)cc1`, for which the AC50 is > 26 µM (inactive). As for `CCOC(=O)c1cnc(-n2nc(C)cc2C)nc1Nc1ccc(O)cc1`, the figure is > 26 µM (inactive).

Turning to `C/C(=N\NC(=O)c1cc(-c2cccnc2)nc2ccccc12)c1ccccc1O`, the AC50 was > 26 µM (inactive). With `CC(=O)N1CCN(c2ccc(Oc3ccc([N+](=O)[O-])c(C(F)(F)F)c3)cc2)CC1` the figure was > 26 µM (inactive); with `CCCC1(c2ccccc2)NC(=O)N(CC(=O)Nc2cc(C)ccc2OC)C1=O` (configuration not stated), > 26 µM (inactive). With `C/C(=N\NC(=O)c1ccoc1C)c1ccccc1O` the figure was > 26 µM (inactive); with `CN(/N=C/c1cc(Br)cc(Br)c1O)c1cccc(C(F)(F)F)n1`, > 12 µM (inactive); with `O=C1C=C(c2ccc(F)cc2OCc2ccccc2)C[C@@H](c2ccc(Cl)cc2)C1`, > 26 µM (inactive). Consider `Cc1onc(-c2ccccc2)c1C(=O)NC(=S)NNC(=O)c1ccccc1O`, for which the AC50 is > 26 µM (inactive). As for `CCC(=O)NC(c1cccs1)c1ccc2cccnc2c1O` (configuration not stated), the figure is > 26 µM (inactive). Regarding `CCOC(=O)c1cnc(-n2nc(C)cc2C)nc1NC(C)c1ccccc1` (configuration not stated), the AC50 is > 12 µM (inactive). With `CCC[C@@H](CN1CCC[C@H]1CN1C(N)=NC[C@@H]1Cc1ccccc1)N1C[C@@H]([C@H](C)CC)N(CCCC2CCCC2)C1=N` the figure was > 26 µM (inactive); with `COc1ccccc1CNc1ncnc2sccc12`, > 26 µM (inactive); with `CCCCC(CC)CN1C(=O)/C(=C/c2ccncc2)SC1=S` (configuration not stated), > 26 µM (inactive). As for `C/C(N)=C(/C#N)C(=O)COC(=O)c1cc(-c2ccc(C)cc2)nc2ccccc12`, the figure is > 26 µM (inactive); as for `CCOc1ccc(CN2CCN(Cc3c[nH]c4ccccc34)CC2)cc1`, > 26 µM (inactive). With `CC[C@@H](C(=O)[C@@H](C)[C@@H](O)[C@H](C)CCc1ccc(C)c(O)c1C(=O)O)[C@H]1O[C@](CC)([C@H]2CC[C@](O)(CC)[C@H](C)O2)C[C@@H]1C` the figure was > 12 µM (inactive). For the compound `NS(=O)(=O)c1ccc(N=Nc2ccc(O)c3ncccc23)cc1`, the AC50 is > 26 µM (inactive).

These data come from PubChem BioAssay AID463206 (Broad Institute, 2010).
